# Calls of active or inactive are those of the source. The rule behind the calls is not given here.
# Test system: LX-2
# Test: Anti-hepatic fibrosis activity in human LX2 cells assessed as inhibition of TGF-beta1 induced intrinsic TGF-beta1 mRNA expression at 3 micromol/L incubated for 24 hrs by qPCR analysis
# Type: functional, cell-based
# Conditions: dose 3.0 µmol/L
row,Compound,inhibition
1,O=C(Nc1ccccc1NS(=O)(=O)c1cccc(C(F)(F)F)c1)c1cc(Cl)c(Cl)c(Cl)c1,Active

# Test system: LX-2
# Test: Anti-hepatic fibrosis activity in human LX2 cells assessed as inhibition of TGFbeta1-induced alpha-SMA protein expression at 3 uM incubated for 24 hrs by western blot analysis
# Type: functional, cell-based
# Conditions: not given
row,Compound,inhibition
1,O=[N+]([O-])c1ccc(S(=O)(=O)Nc2ccccc2CNc2cc(F)ccc2Cl)cc1,Active
2,O=[N+]([O-])c1ccc(S(=O)(=O)Nc2ccccc2CNc2cc(Cl)c(Cl)c(Cl)c2)cc1,Active
3,O=[N+]([O-])c1ccc(S(=O)(=O)Nc2ccccc2CNc2cc(Cl)ccc2Cl)cc1,Active
4,O=C(Nc1ccccc1NS(=O)(=O)c1ccc([N+](=O)[O-])cc1)c1ccc(Cl)c(Cl)c1,Active

# Test system: LX-2
# Test: Anti-hepatic fibrosis activity in human LX2 cells assessed as inhibition of TGFbeta1-induced FN protein expression at 3 uM incubated for 24 hrs by western blot analysis
# Type: functional, cell-based
# Conditions: not given
row,Compound,inhibition
1,O=[N+]([O-])c1ccc(S(=O)(=O)Nc2ccccc2CNc2cc(F)ccc2Cl)cc1,Active
2,O=[N+]([O-])c1ccc(S(=O)(=O)Nc2ccccc2CNc2cc(Cl)c(Cl)c(Cl)c2)cc1,Active
3,O=[N+]([O-])c1ccc(S(=O)(=O)Nc2ccccc2CNc2cc(Cl)ccc2Cl)cc1,Active
4,O=C(Nc1ccccc1NS(=O)(=O)c1ccc([N+](=O)[O-])cc1)c1ccc(Cl)c(Cl)c1,Active

# Test system: LX-2
# Test: Anti-hepatic fibrosis activity in human LX2 cells assessed as inhibition of TGFbeta1-induced COL1A1 protein expression at 3 uM incubated for 24 hrs by western blot analysis
# Type: functional, cell-based
# Conditions: not given
row,Compound,inhibition
1,O=[N+]([O-])c1ccc(S(=O)(=O)Nc2ccccc2CNc2cc(F)ccc2Cl)cc1,Active
2,O=[N+]([O-])c1ccc(S(=O)(=O)Nc2ccccc2CNc2cc(Cl)c(Cl)c(Cl)c2)cc1,Active
3,O=[N+]([O-])c1ccc(S(=O)(=O)Nc2ccccc2CNc2cc(Cl)ccc2Cl)cc1,Active
4,O=C(Nc1ccccc1NS(=O)(=O)c1ccc([N+](=O)[O-])cc1)c1ccc(Cl)c(Cl)c1,Active

# Test system: LX-2
# Test: Anti-hepatic fibrosis activity in human LX2 cells assessed as inhibition of TGFbeta1-induced FN protein expression at 1 uM incubated for 24 hrs by western blot analysis
# Type: functional, cell-based
# Conditions: not given
row,Compound,inhibition
1,O=C(Nc1ccccc1NS(=O)(=O)c1cccc(C(F)(F)F)c1)c1cc(Cl)c(Cl)c(Cl)c1,Active

# Test system: not listed separately
# Test: Inhibition of JAK1/STAT1/STAT3 signaling pathway in human LX2 cells assessed as decrease in TGF-beta induced STAT3 phosphorylation level at 1 uM incubated for 24 hrs by Western blot analysis
# Type: cell-based
# Conditions: not given
row,Compound,inhibition
1,O=C(Nc1cc(Cl)c(Cl)c(Cl)c1)c1ccccc1NS(=O)(=O)c1cccc([N+](=O)[O-])c1,Active
2,O=C(Nc1ccccc1NS(=O)(=O)c1cccc(C(F)(F)F)c1)c1cc(Cl)c(Cl)c(Cl)c1,Active

# Test system: LX-2
# Test: Anti-hepatic fibrosis activity in human LX2 cells assessed as inhibition of TGFbeta1-induced alpha-SMA protein expression at 1 uM incubated for 24 hrs by western blot analysis
# Type: functional, cell-based
# Conditions: not given
row,Compound,inhibition
1,O=C(Nc1ccccc1NS(=O)(=O)c1cccc(C(F)(F)F)c1)c1cc(Cl)c(Cl)c(Cl)c1,Active

# Test system: not listed separately
# Test: Inhibition of JAK1/STAT1/STAT3 signaling pathway in human LX2 cells assessed as decrease in TGF-beta induced STAT1 phosphorylation level at 1 uM incubated for 24 hrs by Western blot analysis
# Type: cell-based
# Conditions: not given
row,Compound,inhibition
1,O=C(Nc1cc(Cl)c(Cl)c(Cl)c1)c1ccccc1NS(=O)(=O)c1cccc([N+](=O)[O-])c1,Active
2,O=C(Nc1ccccc1NS(=O)(=O)c1cccc(C(F)(F)F)c1)c1cc(Cl)c(Cl)c(Cl)c1,Active

# Test system: LX-2
# Test: Anti-hepatic fibrosis activity in human LX2 cells assessed as inhibition of TGFbeta1-induced TIMP-1 protein expression at 3 uM incubated for 24 hrs by western blot analysis
# Type: functional, cell-based
# Conditions: not given
row,Compound,inhibition
1,O=[N+]([O-])c1ccc(S(=O)(=O)Nc2ccccc2CNc2cc(F)ccc2Cl)cc1,Active
2,O=[N+]([O-])c1ccc(S(=O)(=O)Nc2ccccc2CNc2cc(Cl)c(Cl)c(Cl)c2)cc1,Active
3,O=[N+]([O-])c1ccc(S(=O)(=O)Nc2ccccc2CNc2cc(Cl)ccc2Cl)cc1,Active
4,O=C(Nc1ccccc1NS(=O)(=O)c1ccc([N+](=O)[O-])cc1)c1ccc(Cl)c(Cl)c1,Active

# Test system: AML12
# Test: Cytotoxicity against mouse AML12 cells assessed as mortality rate at 1 to 30 uM incubated for 24 hrs by Sulfonyl Rhodamine B assay
# Type: toxicity, cell-based
# Conditions: aml12, 24 h, dose 1-30 µM
row,Compound,Activity
1,O=C(Nc1cc(Cl)c(Cl)c(Cl)c1)c1ccccc1NS(=O)(=O)c1cccc([N+](=O)[O-])c1,Non-Toxic
2,O=C(Nc1ccccc1NS(=O)(=O)c1cccc(C(F)(F)F)c1)c1cc(Cl)c(Cl)c(Cl)c1,Non-Toxic

# Test system: LX-2
# Test: Anti-hepatic fibrosis activity in human LX2 cells assessed as inhibition of TGF-beta1 induced MMP-2 mRNA expression at 3 micromol/L incubated for 24 hrs by qPCR analysis
# Type: functional, cell-based
# Conditions: dose 3.0 µmol/L
row,Compound,inhibition
1,O=C(Nc1ccccc1NS(=O)(=O)c1cccc(C(F)(F)F)c1)c1cc(Cl)c(Cl)c(Cl)c1,Active

# Test system: LX-2
# Test: Anti-hepatic fibrosis activity in human LX2 cells assessed as inhibition of TGF-beta1 induced COL1A1 mRNA expression at 3 micromol/L incubated for 24 hrs by qPCR analysis
# Type: functional, cell-based
# Conditions: dose 3.0 µmol/L
row,Compound,inhibition
1,O=C(Nc1ccc(Cl)c(Cl)c1)Nc1ccccc1NS(=O)(=O)c1ccc([N+](=O)[O-])cc1,Active
2,O=[N+]([O-])c1ccc(S(=O)(=O)Nc2ccccc2CNc2cc(Cl)c(Cl)c(Cl)c2)cc1,Active
3,O=[N+]([O-])c1ccc(S(=O)(=O)Nc2ccccc2CNc2cc(Cl)ccc2Cl)cc1,Active
4,O=C(Nc1cc(Cl)c(Cl)c(Cl)c1)c1ccccc1NS(=O)(=O)c1cccc([N+](=O)[O-])c1,Active
5,O=C(Nc1ccccc1NS(=O)(=O)c1ccc([N+](=O)[O-])cc1)c1ccc(Cl)c(Cl)c1,Active
6,O=[N+]([O-])c1cccc(S(=O)(=O)Nc2ccccc2CNc2cc(Cl)c(Cl)c(Cl)c2)c1,Active
7,O=C(Nc1ccccc1NS(=O)(=O)c1cccc(C(F)(F)F)c1)c1cc(Cl)c(Cl)c(Cl)c1,Active

# Test system: LX-2
# Test: Anti-hepatic fibrosis activity in human LX2 cells assessed as inhibition of TGFbeta1-induced COL1A1 protein expression at 1 uM incubated for 24 hrs by western blot analysis
# Type: functional, cell-based
# Conditions: not given
row,Compound,inhibition
1,O=C(Nc1ccccc1NS(=O)(=O)c1cccc(C(F)(F)F)c1)c1cc(Cl)c(Cl)c(Cl)c1,Active

# Test system: not listed separately
# Test: Cytotoxicity against human LX2 cells assessed as mortality rate at 1 to 30 uM incubated for 24 hrs by Sulfonyl Rhodamine B assay
# Type: toxicity, cell-based
# Conditions: lx-2, 24 h, dose 1-30 µM
row,Compound,Activity
1,O=C(Nc1cc(Cl)c(Cl)c(Cl)c1)c1ccccc1NS(=O)(=O)c1cccc([N+](=O)[O-])c1,Non-Toxic
2,O=C(Nc1ccccc1NS(=O)(=O)c1cccc(C(F)(F)F)c1)c1cc(Cl)c(Cl)c(Cl)c1,Non-Toxic

# Test system: LX-2
# Test: Anti-hepatic fibrosis activity in human LX2 cells assessed as inhibition of TGFbeta1-induced TIMP-1 protein expression at 1 uM incubated for 24 hrs by western blot analysis
# Type: functional, cell-based
# Conditions: not given
row,Compound,inhibition
1,O=C(Nc1ccccc1NS(=O)(=O)c1cccc(C(F)(F)F)c1)c1cc(Cl)c(Cl)c(Cl)c1,Active

# Test system: not listed separately
# Test: Anti-hepatic fibrosis activity in human LX2 cells assessed as inhibition of COL1A1 promoter activity at 25 micromol/L by luciferase reporter assay relative to control
# Type: functional
# Conditions: LX-2, dose 25 µmol/L
row,Compound,inhibition at 25 µM [%]
1,O=C(Nc1ccc(Cl)c(Cl)c1)Nc1ccccc1NS(=O)(=O)c1ccc([N+](=O)[O-])cc1,28.5
2,COc1ccc(NC(=O)Nc2ccccc2NS(=O)(=O)c2ccc([N+](=O)[O-])cc2)cc1,14.5
3,O=C(Nc1ccccc1NS(=O)(=O)c1ccc([N+](=O)[O-])cc1)c1ccc(Cl)cc1Cl,33
4,O=[N+]([O-])c1cccc(S(=O)(=O)Nc2ccccc2CNc2ccc(F)c(Cl)c2)c1,24.1
5,O=C(Nc1ccc(Cl)cc1)Nc1ccccc1NS(=O)(=O)c1ccc([N+](=O)[O-])cc1,23.6
6,O=C(Nc1cccc(C(F)(F)F)c1)Nc1ccccc1NS(=O)(=O)c1ccc([N+](=O)[O-])cc1,22.9
7,O=[N+]([O-])c1ccc(S(=O)(=O)Nc2ccccc2CNc2cc(F)ccc2Cl)cc1,26
8,O=C(Nc1ccc(Cl)cc1Cl)Nc1ccccc1NS(=O)(=O)c1ccc([N+](=O)[O-])cc1,25.8
9,O=[N+]([O-])c1ccc(S(=O)(=O)Nc2ccccc2CNc2cc(Cl)c(Cl)c(Cl)c2)cc1,48.7
10,O=S(=O)(Nc1ccccc1CNc1cc(Cl)c(Cl)c(Cl)c1)c1ccc(Cl)cc1,31.7
11,O=C(Nc1ccc(Cl)cc1)Nc1ccccc1NS(=O)(=O)c1cccc([N+](=O)[O-])c1,21.9
12,COc1ccc(NC(=O)Nc2ccccc2NS(=O)(=O)c2cccc([N+](=O)[O-])c2)cc1,25.4
13,O=S(=O)(Nc1ccccc1CNc1cc(Cl)c(Cl)c(Cl)c1)c1cccc(Cl)c1,33.4
14,O=C(Nc1ccc(C(F)(F)F)cc1)Nc1ccccc1NS(=O)(=O)c1cccc([N+](=O)[O-])c1,17.8
15,C=C1C(=O)O[C@@H]2/C=C(\C)CC/C=C(\C)CC[C@@H]12 [COSTUNOLIDE],45.4
16,O=C(Nc1ccccc1NS(=O)(=O)c1cccc([N+](=O)[O-])c1)c1ccc(Cl)cc1Cl,27.9
17,COc1ccc(C(F)(F)F)cc1NC(=O)Nc1ccccc1NS(=O)(=O)c1cccc([N+](=O)[O-])c1,20.2
18,COc1cccc(S(=O)(=O)Nc2ccccc2NC(=O)c2cc(Cl)c(Cl)c(Cl)c2)c1,1.5
19,O=C(Nc1ccccc1NS(=O)(=O)c1cccc([N+](=O)[O-])c1)c1ccc(Cl)c(Cl)c1,30.9
20,O=[N+]([O-])c1cccc(S(=O)(=O)Nc2ccccc2CNc2cc(Cl)ccc2Cl)c1,40
21,O=S(=O)(Nc1ccccc1CNc1cc(Cl)c(Cl)c(Cl)c1)c1cccc(OC(F)(F)F)c1,33.5
22,O=C(Nc1ccc(C(F)(F)F)cc1)Nc1ccccc1NS(=O)(=O)c1ccc([N+](=O)[O-])cc1,21.3
23,O=[N+]([O-])c1ccc(S(=O)(=O)Nc2ccccc2CNc2cc(Cl)ccc2Cl)cc1,32.3
24,O=C(Nc1cc(Cl)c(Cl)c(Cl)c1)c1ccccc1NS(=O)(=O)c1cccc([N+](=O)[O-])c1,35.9
25,O=C(Nc1ccccc1NS(=O)(=O)c1ccc([N+](=O)[O-])cc1)c1ccc(Cl)c(Cl)c1,49.3
26,O=[N+]([O-])c1cccc(S(=O)(=O)Nc2ccccc2CNc2cc(Cl)c(Cl)c(Cl)c2)c1,42.3
27,O=C(Nc1ccccc1NS(=O)(=O)c1cccc(C(F)(F)F)c1)c1cc(Cl)c(Cl)c(Cl)c1,60.7

# Test system: not listed separately
# Test: Inhibition of JAK1/STAT1/STAT3 signaling pathway in human LX2 cells assessed as decrease in TGF-beta induced JAK1 phosphorylation level at 1 uM incubated for 24 hrs by Western blot analysis
# Type: cell-based
# Conditions: not given
row,Compound,inhibition
1,O=C(Nc1cc(Cl)c(Cl)c(Cl)c1)c1ccccc1NS(=O)(=O)c1cccc([N+](=O)[O-])c1,Active
2,O=C(Nc1ccccc1NS(=O)(=O)c1cccc(C(F)(F)F)c1)c1cc(Cl)c(Cl)c(Cl)c1,Active

# Reference: ChEMBL document CHEMBL5257100, “Discovery and development of benzene sulfonamide derivatives as anti-hepatic fibrosis agents” (Bioorg Med Chem Lett, 2023)
